PubChem BioAssay (NCI)
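All cell lines were grown in 96-well plates and treated with compound for 48 hours. The concentration for 50% growth inhibition is given as GI50. TGI is the concentration that stops growth completely.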

Columns and labels:
Assay in all cases: growth of human tumour cells (NCI), 48 h; in the data active means GI50 below about 0.43 µM; inactive means the rest
MCF7 breast = system: MCF7 breast
HOP-62 NSCLC = system: HOP-62 NSCLC
RPMI-8226 leukemia = system: RPMI-8226 leukemia
HT29 colon = system: HT29 colon
CAKI-1 renal = system: CAKI-1 renal
MOLT-4 leukemia = system: MOLT-4 leukemia
SF-268 CNS = system: SF-268 CNS
DU-145 prostate = system: DU-145 prostate
HCC-2998 colon = system: HCC-2998 colon
NCI-H226 lung = system: NCI-H226 lung
NCI-H23 lung = system: NCI-H23 lung
SNB-75 CNS = system: SNB-75 CNS
SR leukemia = system: SR leukemia
SW-620 colon = system: SW-620 colon
SK-OV-3 ovarian = system: SK-OV-3 ovarian
HOP-92 NSCLC = system: HOP-92 NSCLC
UO-31 renal = system: UO-31 renal
HS 578T breast = system: HS 578T breast
OVCAR-8 ovarian = system: OVCAR-8 ovarian
RXF 393 renal = system: RXF 393 renal
U251 CNS = system: U251 CNS
COLO 205 colon = system: COLO 205 colon
MDA-MB-435 = system: MDA-MB-435
SK-MEL-28 melanoma = system: SK-MEL-28 melanoma
NCI-H460 lung = system: NCI-H460 lung
NCI-H522 lung = system: NCI-H522 lung
SNB-19 CNS = system: SNB-19 CNS
M14 melanoma = system: M14 melanoma
786-0 renal = system: 786-0 renal
HCT-116 colon = system: HCT-116 colon
A498 renal = system: A498 renal
SF-539 CNS = system: SF-539 CNS
A549 NSCLC = system: A549 NSCLC
ACHN renal = system: ACHN renal
NCI/ADR-RES ovarian = system: NCI/ADR-RES ovarian
UACC-257 melanoma = system: UACC-257 melanoma
OVCAR-5 ovarian = system: OVCAR-5 ovarian
UACC-62 melanoma = system: UACC-62 melanoma
TK-10 renal = system: TK-10 renal
IGROV1 ovarian = system: IGROV1 ovarian
CCRF-CEM leukemia = system: CCRF-CEM leukemia
EKVX NSCLC = system: EKVX NSCLC
HL-60(TB) leukemia = system: HL-60(TB) leukemia
SN12C renal = system: SN12C renal
SK-MEL-5 melanoma = system: SK-MEL-5 melanoma
OVCAR-4 ovarian = system: OVCAR-4 ovarian
K-562 leukemia = system: K-562 leukemia
PC-3 prostate = system: PC-3 prostate
BT-549 breast = system: BT-549 breast
MDA-MB-231 breast = system: MDA-MB-231 breast
HCT-15 colon = system: HCT-15 colon
KM12 colon = system: KM12 colon
SK-MEL-2 melanoma = system: SK-MEL-2 melanoma
LOX IMVI melanoma = system: LOX IMVI melanoma
SF-295 CNS = system: SF-295 CNS

CCN1C(=O)N(CC)C2SC(N/N=C/c3ccc(OC)cc3)=NC21 (stereo not given)
> 40300 nM: TGI (HCT-116 colon)
> 83800 nM: TGI (SF-295 CNS)
inactive: GI50 (HOP-62 NSCLC) 433 nM | GI50 (MOLT-4 leukemia) 589 nM | GI50 (SF-268 CNS) 2510 nM | GI50 (DU-145 prostate) 478 nM | GI50 (HCC-2998 colon) 795 nM | GI50 (NCI-H226 lung) 438 nM | GI50 (NCI-H23 lung) 570 nM | GI50 (SK-OV-3 ovarian) 453 nM | GI50 (UO-31 renal) 686 nM | GI50 (OVCAR-8 ovarian) 428 nM | GI50 (SK-MEL-28 melanoma) > 100000 nM | GI50 (SNB-19 CNS) 464 nM | GI50 (786-0 renal) 849 nM | GI50 (A549 NSCLC) 666 nM | GI50 (ACHN renal) 811 nM | GI50 (UACC-257 melanoma) 2320 nM | GI50 (OVCAR-5 ovarian) 917 nM | GI50 (TK-10 renal) > 100000 nM | GI50 (IGROV1 ovarian) 648 nM | GI50 (EKVX NSCLC) 704 nM | GI50 (SN12C renal) 594 nM | GI50 (SK-MEL-5 melanoma) 462 nM | GI50 (OVCAR-4 ovarian) > 100000 nM | GI50 (PC-3 prostate) 449 nM | GI50 (MDA-MB-231 breast) 868 nM | GI50 (KM12 colon) 457 nM | GI50 (SK-MEL-2 melanoma) 504 nM | GI50 (LOX IMVI melanoma) 564 nM
active: GI50 (MCF7 breast) 381 nM | GI50 (RPMI-8226 leukemia) 423 nM | GI50 (HT29 colon) 322 nM | GI50 (CAKI-1 renal) 425 nM | GI50 (SNB-75 CNS) 321 nM | GI50 (SR leukemia) 308 nM | GI50 (SW-620 colon) 380 nM | GI50 (HOP-92 NSCLC) 283 nM | GI50 (HS 578T breast) 305 nM | GI50 (RXF 393 renal) 282 nM | GI50 (U251 CNS) 365 nM | GI50 (COLO 205 colon) 273 nM | GI50 (MDA-MB-435) 205 nM | GI50 (NCI-H460 lung) 357 nM | GI50 (NCI-H522 lung) 235 nM | GI50 (M14 melanoma) 322 nM | GI50 (HCT-116 colon) 394 nM | GI50 (A498 renal) 217 nM | GI50 (SF-539 CNS) 269 nM | GI50 (NCI/ADR-RES ovarian) 395 nM | GI50 (UACC-62 melanoma) 390 nM | GI50 (CCRF-CEM leukemia) 334 nM | GI50 (HL-60(TB) leukemia) 281 nM | GI50 (K-562 leukemia) 350 nM | GI50 (BT-549 breast) 322 nM | GI50 (HCT-15 colon) 404 nM | GI50 (SF-295 CNS) 317 nM
> 100000 nM: TGI (MCF7 breast) | TGI (HOP-62 NSCLC) | TGI (RPMI-8226 leukemia) | TGI (CAKI-1 renal) | TGI (MOLT-4 leukemia) | TGI (SF-268 CNS) | TGI (DU-145 prostate) | TGI (HCC-2998 colon) | TGI (NCI-H23 lung) | TGI (SNB-75 CNS) | TGI (SR leukemia) | TGI (SW-620 colon) | TGI (SK-OV-3 ovarian) | TGI (UO-31 renal) | TGI (HS 578T breast) | TGI (RXF 393 renal) | TGI (U251 CNS) | TGI (SK-MEL-28 melanoma) | TGI (NCI-H460 lung) | TGI (SNB-19 CNS) | TGI (A549 NSCLC) | TGI (ACHN renal) | TGI (NCI/ADR-RES ovarian) | TGI (UACC-257 melanoma) | TGI (OVCAR-5 ovarian) | TGI (UACC-62 melanoma) | TGI (TK-10 renal) | TGI (IGROV1 ovarian) | TGI (CCRF-CEM leukemia) | TGI (EKVX NSCLC) | TGI (SN12C renal) | TGI (OVCAR-4 ovarian) | TGI (K-562 leukemia) | TGI (PC-3 prostate) | TGI (MDA-MB-231 breast) | TGI (HCT-15 colon) | TGI (KM12 colon) | TGI (SK-MEL-2 melanoma) | TGI (LOX IMVI melanoma)
3010 nM: TGI (SK-MEL-5 melanoma)
857 nM: TGI (SF-539 CNS)
34200 nM: TGI (M14 melanoma)
4660 nM: TGI (HOP-92 NSCLC)
51700 nM: TGI (786-0 renal)
685 nM: TGI (A498 renal)
760 nM: TGI (NCI-H522 lung)
> 72000 nM: TGI (NCI-H226 lung)
1280 nM: TGI (HT29 colon)
9060 nM: TGI (HL-60(TB) leukemia)
1320 nM: TGI (BT-549 breast)
6610 nM: TGI (OVCAR-8 ovarian)
751 nM: TGI (COLO 205 colon)
522 nM: TGI (MDA-MB-435)
